Assay: Solubility limit of the solid (second) organic solvent in the liquid (first) organic solvent
Type: physicochemical
Conditions: dissolved at 40°C, stability on standing up to a week at 25°C
Excerpt: The differences between the Hansen Solubility parameter Hd, Hp and Hh of the first and the second solvent can be realized individually or collectively. In a very preferred embodiment, at least two and more preferred all the differences between the Hansen Solubility parameter Hd, Hp and Hh of the first and the second solvent are commonly realized.

[1] = in liquid solvent 3-Phenoxy toluene

C=C1CC[C@H]2O[C@]2(C)CC[C@@H]2[C@@H]1CC2(C)C [Caryophyllene oxide]
Solubility limit [1]: 55% | Solubility limit (in liquid solvent α-Pinene oxide): 60% | Solubility limit (in liquid solvent β-Caryophyllene): 35%

O=C1CCCCCCCCCCCCCCO1 [ω-Pentadecalactone]
Solubility limit [1]: >70%
